The record followed here is patent US20250296938A1, “Compounds that Interact with the Ras Superfamily for the Treatment of Cancers, Inflammatory Diseases, Rasopathies, and Fibrotic Disease” (SHY Therapeutics, LLC, priority 2018, published 2025).

One may read the IC50 as the concentration at which inhibition is half-maximal. A high value points to lower potency.

Holding throughout (experiment): Ras GTP binding domain inhibition assay (Cy3-GTP/Cy5-GTP competition)
One experiment deals with KRas Q61H mutant. Also on record: species or system human. Particulars: 20 μM. The method, then: (§1) The following method was developed as specific assay for the following proteins: KRas wild type, KRas Q61H mutant, KRas G12C mutant, KRas G12D mutant, HRas wild type, Rac-1, and Rho-A.
(§2) • 25 mM Tris-HCl, pH 7.4 • 27 mM KCl • 137 mM NaCl • 1 mM MgCl2 • 1 mM DTT
(§3) • 50 mM Tris-HCl, pH 7.0 • 1 mM MgCl2 • 1 mM DTT
(§4) The small GTPases proteins: KRas wild type. KRas Q61H mutant, KRas G12C mutant, KRas G12D mutants, HRas wild type, Rac-1, and Rho-A were expressed as His-tagged proteins. In addition, the Guanosine nucleotide Exchange Factor (GEF) Sos protein (residues 556-1049) was expressed as a His-tagged protein. In cells, the guanine nucleotide exchange factor Sos protein promotes activation of Ras proteins by stimulating an exchange of GDP for GTP. The inclusion of Sos to the Ras GTP binding domain inhibition assay may be considered as an alternative representation of physiological cellular conditions for evaluating the inhibitory activity of some of the tested small molecules.
(§5) For the assay, all purified small GTPases proteins were diluted in Buffer-I or Buffer-II to a final concentration of 10-30 μg/mL. 200 μL of each diluted protein was added to a nickel-coated 96-well plate and incubated overnight at 4° C. Then the protein solution was discarded and 200 μL of Buffer-I or Buffer-II was added to each well in the presence of 1% DMSO. Compounds to be tested were added to the protein-coated wells at final concentration of 20 μM, and incubated for 3 hours at room temperature with and without […] of Sos added to the final hour of the incubation. When performing IC50 measurements a serial dilution of all tested concentrations was added. Then Cy3-GTP or Cy5-GTP was added to each well to a final concentration of 100 nM. The labeled GTP was incubated for 45 minutes at room temperature. Following GTP incubation, wells were washed 3× in Buffer-I or Buffer-II and 200 μL of Buffer-I or Buffer-II was added to each well. Following washes, the amount of bound labeled-GTP was measured using a SpectraMax M3 (Molecular Devices).

In the next experiment the test system is KRas wild type. Also on record: species or system human. To be noted: 20 μM; for KRas wild type: % inh.: without SOS; for KRas wild type % inh.: without SOS (Table 7A). How it is done:
as §1, §2, §3, §4, §5

Another experiment deals with KRas G12C mutant. Also on record: species or system human. Particulars: 20 μM; for KRas G12C mutant + SOS: % inh.: with SOS; for KRas G12C mutant: % inh.: without SOS. The method, then: as §1, §2, §3, §4, §5
A further experiment deals with T1, KRas G12D mutant (Homo sapiens, UniProt P01116, G12D).
T1 construct: fused on or other part: His tag, used for capture on nickel-coated plates
The method, then:
as §1, §2, §3, §4, §5

[1] abbreviates: 20 μM, with SOS, read-out: KRas G-12D mutant + SOS: % inh.
[2] abbreviates: 20 μM, without SOS, read-out: KRas G12D mutant: % inh.
[3] abbreviates: at 20 μM, with SOS, read-out: KRas G12D mutant + SOS: % inh.
Setting [4] is: at 20 μM, without SOS, read-out: KRas G12D mutant: % inh.
The mark [5] stands for this setting: 20 μM, with SOS (Table 7A), read-out: KRas G12D mutant + SOS: % inh.
[6] abbreviates: 20 μM, without SOS (Table 7A), read-out: KRas G12D mutant: % inh.

The structures appear in SMILES notation. Read-outs that look alike come from different tables or passages of the source.

Turning to `COc1nscc1-c1sc2nc(-c3nccn3C)nc(N3CCC(OC)C3)c2c1-c1ccccc1.Cl` (stereo not drawn), the “KRas Q61H mutant + SOS: % inh.” value in the experiment with KRas Q61H mutant (with SOS) was “D (76-100% inhibition)”. In the experiment with KRas Q61H mutant (without SOS), the “KRas Q61H mutant: % inh.” value is “C (51-75% inhibition)”. Moreover, the “KRas wild type + SOS: % inh.” value in the experiment on KRas wild type (with SOS) is given as “D (76-100% inhibition)”. Also, the “KRas wild type: % inh.” value with KRas wild type is “B (26-50% inhibition)”. In the experiment with KRas G12C mutant, the “KRas G12C mutant + SOS: % inh.” value is recorded as “D (76-100% inhibition)” and the “KRas G12C mutant: % inh.” value is on record as “B (26-50% inhibition)”. The inhibition at 20 µM at KRas G12D mutant (setting [1]) was 51 to 75%. For the same compound, the inhibition at 20 µM at KRas G12D mutant (setting [2]) lay in the range of 26 to 50%.
For `COCCn1cc(-c2sc3nc(-c4nccn4C)nc(N4CCC(OC)C4)c3c2-c2ccccc2)cn1.Cl` (stereo not drawn), the “KRas Q61H mutant + SOS: % inh.” value in the experiment on KRas Q61H mutant (with SOS) is “C (51-75% inhibition)”. In addition, in the experiment with KRas Q61H mutant (without SOS), the “KRas Q61H mutant: % inh.” value is on record as “B (26-50% inhibition)”. For the same compound, the “KRas wild type + SOS: % inh.” value in the experiment with KRas wild type (with SOS) is “C (51-75% inhibition)”. The “KRas wild type: % inh.” value with KRas wild type is recorded as “D (76-100% inhibition)”. Further, in the experiment with KRas G12C mutant, the “KRas G12C mutant + SOS: % inh.” value was “D (76-100% inhibition)” and the “KRas G12C mutant: % inh.” value is given as “D (76-100% inhibition)”. Also, the inhibition at 20 µM on KRas G12D mutant (setting [1]) lay within 51 to 75%. The inhibition at 20 µM at KRas G12D mutant (setting [2]) is 51 to 75%.
As for `COC1CCN(c2nc(-c3nccn3C)nc3sc(-c4cnc(C5CC5)o4)c(-c4ccccc4)c23)C1.Cl` (stereo not drawn), the “KRas Q61H mutant + SOS: % inh.” value with KRas Q61H mutant (with SOS) was “C (51-75% inhibition)”. Further, in the experiment on KRas Q61H mutant (without SOS), the “KRas Q61H mutant: % inh.” value is “B (26-50% inhibition)”. In addition, in the experiment with KRas wild type (with SOS), the “KRas wild type + SOS: % inh.” value is “C (51-75% inhibition)”. Besides, the “KRas wild type: % inh.” value with KRas wild type is on record as “C (51-75% inhibition)”. The “KRas G12C mutant + SOS: % inh.” value with KRas G12C mutant is on record as “C (51-75% inhibition)”. Also, in the experiment on KRas G12C mutant, the “KRas G12C mutant: % inh.” value is listed as “C (51-75% inhibition)”. For the same compound, the inhibition at 20 µM on KRas G12D mutant (setting [1]) and on KRas G12D mutant (setting [2]) was 51 to 75% throughout.
`COC1CCN(C(=O)c2sc3nc(-c4nccn4C)nc(N[C@H]4C[C@@H](OC)C4)c3c2C2=CC=CCC=C2)C1` (stereo partly drawn) showed an IC50 at KRas G12D mutant (cell-free, 100 nM Cy3-GTP or Cy5-GTP) of 5 to 10 µM.
Turning to `COc1cccc(-c2sc3nc(-c4nccn4C)nc(N[C@@H]4CC[C@H](C=O)C4)c3c2-c2ccccc2)c1F` (racemic), the inhibition at 20 µM on KRas G12D mutant (setting [3]) and on KRas G12D mutant (setting [4]) was 51 to 75% throughout.
For `COc1cccc(-c2sc3nc(-c4nccn4C)nc(N[C@@H]4CC[C@H](OC)C4)c3c2-c2ccccc2)c1F` [drawing 884], the “KRas Q61H mutant + SOS: % inh.” value with KRas Q61H mutant (with SOS (Table 7A)) is recorded as “D (76-100% inhibition)”. Besides, in the experiment with KRas Q61H mutant (without SOS (Table 7A)), the “KRas Q61H mutant: % inh.” value is recorded as “C (51-75% inhibition)”. In addition, the “KRas wild type + SOS: % inh.” value with KRas wild type (with SOS (Table 7A)) was “D (76-100% inhibition)”. For the same compound, the “KRas wild type % inh.” value with KRas wild type was “C (51-75% inhibition)”. Besides, the inhibition at 20 µM on KRas G12D mutant (setting [5]) and at KRas G12D mutant (setting [6]) was 51 to 75% throughout.
Turning to `COc1c(F)cccc1-c1sc2nc(-c3nccn3C)nc(N[C@@H]3CC[C@H](OC)C3)c2c1-c1ccccc1` [drawing 887], the “KRas Q61H mutant + SOS: % inh.” value with KRas Q61H mutant (with SOS (Table 7A)) is given as “D (76-100% inhibition)”. Also, the “KRas Q61H mutant: % inh.” value in the experiment with KRas Q61H mutant (without SOS (Table 7A)) is given as “D (76-100% inhibition)”. Besides, in the experiment with KRas wild type (with SOS (Table 7A)), the “KRas wild type + SOS: % inh.” value was “D (76-100% inhibition)”. In addition, in the experiment with KRas wild type, the “KRas wild type % inh.” value is “D (76-100% inhibition)”. Besides, the inhibition at 20 µM on KRas G12D mutant (setting [5]) and at KRas G12D mutant (setting [6]) was 76 to 100% in each case.
Take `CO[C@H]1CC[C@@H](Nc2nc(-c3nccn3C)nc3sc(-c4cccc5[nH]ncc45)c(-c4ccccc4)c23)C1` [drawing 889]: the “KRas Q61H mutant + SOS: % inh.” value in the experiment on KRas Q61H mutant (with SOS (Table 7A)) is given as “D (76-100% inhibition)”. In the experiment on KRas Q61H mutant (without SOS (Table 7A)), the “KRas Q61H mutant: % inh.” value was “C (51-75% inhibition)”. Moreover, the “KRas wild type + SOS: % inh.” value with KRas wild type (with SOS (Table 7A)) was “D (76-100% inhibition)”. Moreover, in the experiment with KRas wild type, the “KRas wild type % inh.” value is “C (51-75% inhibition)”. Besides, the inhibition at 20 µM at KRas G12D mutant (setting [5]) and on KRas G12D mutant (setting [6]) was 51 to 75% each time.
As for `COc1cccc(-c2sc3nc(-c4nccn4C)nc(N[C@@H]4CC[C@H](OC)C4)c3c2C)c1F` [drawing 894], the “KRas Q61H mutant + SOS: % inh.” value in the experiment with KRas Q61H mutant (with SOS (Table 7A)) is recorded as “D (76-100% inhibition)”. For the same compound, the “KRas Q61H mutant: % inh.” value in the experiment on KRas Q61H mutant (without SOS (Table 7A)) is listed as “C (51-75% inhibition)”. Besides, the “KRas wild type + SOS: % inh.” value in the experiment on KRas wild type (with SOS (Table 7A)) was “D (76-100% inhibition)”. For the same compound, the “KRas wild type % inh.” value with KRas wild type is recorded as “C (51-75% inhibition)”. For the same compound, the inhibition at 20 µM on KRas G12D mutant (setting [5]) and on KRas G12D mutant (setting [6]) was 51 to 75% each time.
For the compound `COc1cccc(-c2sc3nc(-c4nc(C)cn4C)nc(N[C@@H]4CC[C@H](OC)C4)c3c2C)c1F` [drawing 896], the “KRas Q61H mutant + SOS: % inh.” value in the experiment with KRas Q61H mutant (with SOS (Table 7A)) was “B (26-50% inhibition)”. Also, the “KRas Q61H mutant: % inh.” value with KRas Q61H mutant (without SOS (Table 7A)) is “A (1-25% inhibition)”. Besides, the “KRas wild type + SOS: % inh.” value in the experiment on KRas wild type (with SOS (Table 7A)) is “B (26-50% inhibition)”. The “KRas wild type % inh.” value in the experiment with KRas wild type is recorded as “A (1-25% inhibition)”. The inhibition at 20 µM at KRas G12D mutant (setting [5]) was 26 to 50%; at KRas G12D mutant (setting [6]) it was 1 to 25%.
As for `CO[C@H]1CC[C@@H](Nc2nc(-c3nc(C)cn3C)nc3sc(-c4cccc5[nH]ncc45)c(C)c23)C1` [drawing 897], the “KRas Q61H mutant + SOS: % inh.” value in the experiment with KRas Q61H mutant (with SOS (Table 7A)) is recorded as “B (26-50% inhibition)”. Besides, the “KRas Q61H mutant: % inh.” value in the experiment on KRas Q61H mutant (without SOS (Table 7A)) was “B (26-50% inhibition)”. The “KRas wild type + SOS: % inh.” value with KRas wild type (with SOS (Table 7A)) is listed as “B (26-50% inhibition)”. Moreover, the “KRas wild type % inh.” value in the experiment with KRas wild type is on record as “B (26-50% inhibition)”. Besides, the inhibition at 20 µM at KRas G12D mutant (setting [5]) and at KRas G12D mutant (setting [6]) was 26 to 50% each time.
For the compound `COc1c(F)cccc1-c1sc2nc(-c3nccn3C)nc(N[C@@H]3CC[C@H](OC)C3)c2c1-c1ccccc1` [drawing 1022], the inhibition at 20 µM at KRas G12D mutant (setting [3]) and at KRas G12D mutant (setting [4]) was 76 to 100% throughout.
Turning to `CO[C@H]1CC[C@@H](Nc2nc(-c3nccn3C)nc3sc(-c4cccc5[nH]ncc45)c(-c4ccccc4)c23)C1` [drawing 1024], the inhibition at 20 µM on KRas G12D mutant (setting [3]) and at KRas G12D mutant (setting [4]) was 51 to 75% each time.
For the compound `COc1cccc(-c2sc3nc(-c4nccn4C)nc(N[C@@H]4CC[C@H](OC)C4)c3c2C)c1F` [drawing 1029], the inhibition at 20 µM on KRas G12D mutant (setting [3]) and at KRas G12D mutant (setting [4]) was 51 to 75% throughout.
